The text below walks through data of patent publication US7144891B2, “Benzo[b ]pyrano[3,2- h ]acridin-7-one cinnamate compounds” (Les Laboratoires Servier, priority 2004, dated 2006).

Structures are written as SMILES.

Data set [1] has as its system C38 adenocarcinoma of the colon. In words: In vivo anti-tumour activity with respect to C38 adenocarcinoma of the colon. The note with it: i.v. once per week for 3 weeks (days 10, 17, 24), s.c. C38 tumour in B6D2F1 mice. How it is done:
Anti-tumour Activity with Respect to C38 Adenocarcinoma of the Colon
Tumour fragments of C38 adenocarcinoma of the colon weighing approximately 30 mg were implanted under the skin of B6D2F1 mice (Iffa Credo, France) on day 0.
After growth of the tumour, the mice were divided into control (18 animals) and treated (6 or 7 animals) groups, which were homogeneous with respect to tumour size. The products were administered by the i.v. route once per week for 3 weeks (on days 10, 17 and 24), at their Maximum Tolerated Dose (MTD), MTD/2 and MTD/4.
The tumours were measured twice a week and the tumour volumes were calculated according to the following formula: volume (mm^3)=length (mm)×breadth (mm^2)/2. The anti-tumour activity is expressed as % T/C: […]
V0 and Vt being the initial volume of the tumour and its volume at measurement time t, respectively.
The optimum dose is the dose giving the lowest T/C value without toxicity (early death or weight loss greater than 20%).

Data set [2] relates to L1210 murine leukaemia cells. In words: In vitro cytotoxicity, Microculture Tetrazolium Assay, L1210. Format: cell-based. The note with it: L1210, 2 days incubation; read-out: IC50 (concentration of cytotoxic agent which inhibits proliferation of the treated cells by 50%). As to the method: (§1) Two cell lines were used • 1 murine leukaemia: L1210, • 1 human epidermoid carcinoma: KB-3-1
(§2) The cells are cultured in RPMI 1640 complete culture medium containing 10% foetal calf serum, 2 mM glutamine, 50 units/ml of penicillin, 50 μg/ml of streptomycin and 10 mM Hepes, pH=7.4. The cells are distributed on microplates and are exposed to the cytotoxic compounds. The cells are then incubated for 2 days (L1210) or 4 days (KB-3-1). The number of viable cells is then quantified by a colorimetric assay, the Microculture Tetrazolium Assay (Cancer Res. 1987, 47, 939–942).
(§3) The results are expressed in terms of the IC50 (the concentration of cytotoxic agent which inhibits proliferation of the treated cells by 50%).

Data set [3] relates to KB-3-1 human epidermoid carcinoma cells. In words: In vitro cytotoxicity, Microculture Tetrazolium Assay, KB-3-1. It is filed as cell-based. Particulars: KB-3-1, 4 days incubation; read-out: IC50 (concentration of cytotoxic agent which inhibits proliferation of the treated cells by 50%). As to the method:
as §1, §2, §3

For data set [4] the following is noted: general statement, limits bioavailability and i.v. use; cited from earlier work.

Turning to `COc1cc2c(c3c1c(=O)c1cc4ccccc4cc1n3C)[C@@H](OC(C)=O)[C@@H](OC(=O)C=Cc1ccc(Cl)c(Cl)c1)C(C)(C)O2` (single isomer, unassigned) [Example 33, (±)-cis-1-Acetoxy-2-(3,4-dichlorocinnamoyloxy)-6-methoxy-3,3,14-trimethyl-1,2,3,14-tetrahydro-1H-benzo[b]pyrano[3,2-h]acridin-7-one (Enantiomer β)], in data set [1] (optimum dose of 4 mg/kg), the “anti-tumour activity (% T/C)” value is on record as 50%.
In the case of `COc1cc2c(c3c1c(=O)c1cc4ccccc4cc1n3C)[C@@H](OC(C)=O)[C@@H](OC(=O)C=Cc1ccccc1)C(C)(C)O2` (racemic) [Example 2, (±)-cis-1-Acetoxy-2-cinnamoyloxy-6-methoxy-3,3,14-trimethyl-1,2,3,14-tetrahydro-1H-benzo[b]pyrano[3,2-h]acridin-7-one], the IC50 in data set [2] turned out to be 590 nM; in data set [3] it was 151 nM.
Regarding `COc1cc2c(c3c1c(=O)c1ccccc1n3C)C=CC(C)(C)O2` [acronycine, reference compound], in data set [4], the solubility entry was “low”. In addition, the “anti-tumour activity (% T/C)” value in data set [1] (optimum dose of 100 mg/kg) was determined as 27%.
